Measurements taken from patent US4105659A, “1,2,3,4,5,6-Hexahydro-2,6-methano-3-benzazocines” (Sterling Drug Inc., priority 1964, dated 1978).
Counter-ions that a name gives are not always drawn. Like-named read-outs stand apart in the source and are kept apart here.

Columns and labels:
[1] = test system: analgesic effect of meperidine hydrochloride; experiment: Antagonism of meperidine analgesia, modified D'Amour-Smith test; details: for ED50: Rattus norvegicus, read-out: dosage of antagonist which reduced the analgesic effect of meperidine by approximately 50 per cent; for dosage of antagonist which reduced the analgesic effect of meperidine by approximately 50 per cent: subcutaneous, rats, lactic acid acid-addition salt, versus 60 mg./kg. meperidine hydrochloride
[2] = test system: analgesic effect of morphine sulfate; experiment: Antagonism of morphine analgesia, modified D'Amour-Smith test; details: for dosage of antagonist which reduced the analgesic effect of morphine by approximately 50 per cent: subcutaneous, rats, lactic acid acid-addition salt, versus 15 mg./kg. morphine sulfate; for ED50: Rattus norvegicus, sc, read-out: dosage of antagonist which reduced the analgesic effect of morphine by approximately 50 per cent
[3] = Solubility, pH of solution and precipitation on pH adjustment or dilution; format: physicochemical; details: for pH at which a precipitate formed: 1 percent solution, addition of N/10 sodium hydroxide
Protocol: A. A mixture of 8.7 g. of racemic cis 1,2,3,4,5,6-hexahydro-6,11-dimethyl-8-hydroxy-2,6-methano-3-benzazocine (which is also known as racemic cis 2'-hydroxy-5,9-dimethyl-6,7-benzomorphan), 6.0 g of 1-bromo-3-methyl-2-butene, 5.0 g. of sodium bicarbonate, and 125 ml. of N,N-dimethylformamide was stirred and refluxed for approximately 41/2 hours. The reaction mixture was then filtered, and the solid on the filter was washed with ethanol. The filtrate and the wash liquor were combined, concentrated under reduced pressure, and then extracted with chloroform. The chloroform extract was concentrated under reduced pressure to yield a syrup which weighed 15.8 g. This syrup was dissolved in 120 ml. of diethyl ether and the resulting solution was filtered to remove approximately one-half gram of a brown amorphous solid. The filtrate was extracted with a mixture of 5 ml. of concentrated hydrochloric acid and 20 ml. of water. To the extract there was added 5 ml. of concentrated ammonium hydroxide solution and ice. A pale tan syrup separated from solution and after stirring, this syrup solidified. The resulting pale tan solid was collected and dried; it weighed 10.6 g. After two recrystallizations from a mixture of methyl alcohol and water, with charcoaling, this solid weighed 8.2 g. and melted at 145°-147° C. The product thus obtained was racemic cis 1,2,3,4,5,6-hexahydro-3-(3-methyl-2-butenyl)-6,11-dimethyl-8-hydroxy-2,6-methano-3-benzazocine (Formula II: Y = --CH2 --CH=C(CH3)2; R^3 = --H), having the molecular formula C19 H27 NO. This product was soluble in a mixture of 0.35 ml. of N/2 hydrochloric acid and 0.15 ml. of water to the extent of 10 percent, the pH of the 1 percent solution being 2.80; and when the pH of the 1 percent solution was gradually raised by addition of N/10 sodium hydroxide solution, a precipitate formed at pH 5.4. When the base was converted to the hydrochloride and was then regenerated from this salt it melted at 151°-153° C. The hydrochloride of this base melted at 245°-247° C. (dec.). and the cyclohexylsulfamate of this base melted at 163°-166° C. The base formed a grayish-yellowtannate.
The racemic trans product was converted to its hydrobromide, having the molecular formula C19 H27 NO·HBr, which was obtained as white needles which melted at 240°-241° C.
The dextro trans product was converted to its hydrochloride, having the molecular formula C19 H27 NO·HCl, which was obtained as white crystals which melted at 254°-255° C.
The levo trans product was converted to its hydrochloride, having the molecular formula C19 H27 NO·HCl, which was obtained as white crystals which melted at 254°-255° C. (dec.); this hydrochloride was soluble in water to the extent of 5 percent, the pH of a 1 percent aqueous solution being 5.7, a precipitate being formed when the 1 percent aqueous solution was adjusted to 7.0 by addition of N/10 sodium hydroxide solution.
A. A mixture of 9.25 g. of racemic cis 1,2,3,4,5,6-hexahydro-6-ethyl-11-methyl-8-hydroxy-2,6-methano-3-benzazocine, 6.0 g. of 1-bromo-3-methyl-2-butene, 125 ml. of N,N-dimethylformamide, and 5.0 g. of sodium bicarbonate was stirred and refluxed for approximately 41/2 hours. The reaction mixture was then filtered, and the solid collected on the filter was washed with ethanol. The filtrate and the wash liquor were combined and concentrated under reduced pressure. To the resulting residue there was added 50 ml. of diethyl ether, and the mixture was filtered. Approximately 0.6 g. of solid was collected on the filter, and 8.2 g. of brown solid separated from the filtrate and was collected by filtration. These two crops of solid (8.8 g.) were combined, 25 ml. of methanol was added, and the mixture was boiled. Only a small portion of the solid dissolved. This mixture was mixed with 25 ml. of water and chilled. The mixture was filtered to collect 8.3 g. of pale tan solid which melted at 156°-158° C. […]

[4] = Clinical analgesia in human subjects; format: in vivo; details: for dose approximately equivalent to 10 mg. of morphine sulfate as an analgesic: parenterally in humans; for analgesia in human subjects: parenterally
Protocol: In human subjects, however, the compounds of Formulas I and II are valuable and effective agents for producing analgesia when administered in the general range of about 10 to 500 mg. per 70 kg. of subject weight, the dosage depending of course on the particular compound, the mode of administration, and the like. The following clinical results which were obtained in human subjects are illustrative. For oral administration the free base was used, and for parenteral (usually intramuscular) administration an aqueous solution of the lactate salt was used; the dosages are expressed in each instance in terms of milligrams of base per 70 kilograms of body weight of the human subject.

[5] = ethanol, organic solvent or mixture, read-out: solubility in ethanol
[6] = water, read-out: solubility in water

Compound `CC(C)=CCN1CC[C@@]2(C)c3cc(O)ccc3C[C@@H]1[C@@H]2C` (relative stereo) [4A (cyclohexylsulfamate), racemic cis 1,2,3,4,5,6-hexahydro-3-(3-methyl-2-butenyl)-6,11-dimethyl-8-hydroxy-2,6-methano-3-benzazocine] has an ED50 ([1]; po) of 125 mg/kg.

With `CC(C)=CCN1CC[C@]2(C)c3cc(O)ccc3C[C@H]1C2C` (relative stereo) [4D (dextro), cis 1,2,3,4,5,6-hexahydro-3-(3-methyl-2-butenyl)-6,11-dimethyl-8-hydroxy-2,6-methano-3-benzazocine] the “dosage of antagonist which reduced the analgesic effect of morphine by approximately 50 per cent” value [2] was 21.0 mg/kg and the “dosage of antagonist which reduced the analgesic effect of meperidine by approximately 50 per cent” value [1] was 18.0 mg/kg.

For `CC(C)=CCN1CC[C@]2(C)c3cc(O)ccc3C[C@H]1C2C` (relative stereo) [4D (levo), cis 1,2,3,4,5,6-hexahydro-3-(3-methyl-2-butenyl)-6,11-dimethyl-8-hydroxy-2,6-methano-3-benzazocine], the “dosage of antagonist which reduced the analgesic effect of morphine by approximately 50 per cent” value [2] was 4.3 mg/kg and the “dosage of antagonist which reduced the analgesic effect of meperidine by approximately 50 per cent” value [1] was 1.05 mg/kg.

With `CC(C)=CCN1CC[C@@]2(C)c3cc(O)ccc3C[C@H]1C2C` (relative stereo) [4E (dextro) hydrochloride, trans 1,2,3,4,5,6-hexahydro-3-(3-methyl-2-butenyl)-6,11-dimethyl-8-hydroxy-2,6-methano-3-benzazocine] the “pH of a 1 percent aqueous solution” value [3] was 5.6, the “pH at which a precipitate formed” value [3] was over 6.9 and the solubility in water ([3]; water) was 5%.

With `CC(C)=CCN1CC[C@@]2(C)c3cc(O)ccc3C[C@H]1C2C` (relative stereo) [4E (dextro), trans 1,2,3,4,5,6-hexahydro-3-(3-methyl-2-butenyl)-6,11-dimethyl-8-hydroxy-2,6-methano-3-benzazocine] the “dosage of antagonist which reduced the analgesic effect of meperidine by approximately 50 per cent” value [1] was 13.0 mg/kg.

For `CC(C)=CCN1CC[C@@]2(C)c3cc(O)ccc3C[C@H]1C2C` (relative stereo) [4E (levo) hydrochloride, trans 1,2,3,4,5,6-hexahydro-3-(3-methyl-2-butenyl)-6,11-dimethyl-8-hydroxy-2,6-methano-3-benzazocine], the “pH of a 1 percent aqueous solution” value [3] was 5.7, the “pH at which a precipitate formed” value [3] was 7.0 and the solubility in water ([3]; water) was 5%.

With `CC(C)=CCN1CC[C@@]2(C)c3cc(O)ccc3C[C@H]1C2C` (relative stereo) [4E (levo), trans 1,2,3,4,5,6-hexahydro-3-(3-methyl-2-butenyl)-6,11-dimethyl-8-hydroxy-2,6-methano-3-benzazocine] the “dosage of antagonist which reduced the analgesic effect of meperidine by approximately 50 per cent” value [1] was 0.55 mg/kg.

For `CC(C)=CCN1CC[C@@]2(C)c3cc(O)ccc3C[C@@H]1[C@H]2C` (relative stereo) [4E (racemic) hydrobromide, trans 1,2,3,4,5,6-hexahydro-3-(3-methyl-2-butenyl)-6,11-dimethyl-8-hydroxy-2,6-methano-3-benzazocine], the solubility [3, 5] was 10 mg/mL and the solubility [3, 6] was under 2.5 mg/mL.

`CC(C)=CCN1CC[C@@]2(C)c3cc(O)ccc3C[C@@H]1[C@H]2C` (relative stereo) [4E (racemic), trans 1,2,3,4,5,6-hexahydro-3-(3-methyl-2-butenyl)-6,11-dimethyl-8-hydroxy-2,6-methano-3-benzazocine] gave an ED50 ([1]; sc) of 3.3 mg/kg.

Work on `C=C(C)CN1CC[C@@]2(C)c3cc(O)ccc3C[C@@H]1[C@@H]2C` (relative stereo) [8A hydrochloride, 1,2,3,4,5,6-Hexahydro-3-(2-methyl-2-propenyl)-6,11-dimethyl-8-hydroxy-2,6-methano-3-benzazocine] yielded a solubility [3, 5] of under 10 mg/mL and a solubility [3, 6] of under 2.5 mg/mL.

For `C=CCN1CC[C@@]2(CC)c3cc(O)ccc3C[C@@H]1[C@@H]2C` (relative stereo) [Example 1A, racemic cis 1,2,3,4,5,6-hexahydro-3-allyl-6-ethyl-11-methyl-8-hydroxy-2,6-methano-3-benzazocine], the “dose approximately equivalent to 10 mg. of morphine sulfate as an analgesic” value [4] was about 5 mg, the “analgesia in human subjects” value ([4]; 5 mg./kg. and 10 mg./kg.) was “effective and satisfactory analgesia” and the ED50 [2] was 0.044 mg/kg. For the same compound, the ED50 ([1]; sc) was 0.049 mg/kg.

In the case of `C=CCN1CC[C@@]2(CC)c3cc(OC(C)=O)ccc3C[C@@H]1[C@@H]2C` (relative stereo) [Example 1B, racemic cis 1,2,3,4,5,6-hexahydro-3-allyl-6-ethyl-11-methyl-8-acetoxy-2,6-methano-3-benzazocine], the ED50 ([1]; sc) is reported as 0.027 mg/kg.

In the case of `CC[C@]12CCN(CC=C(C)C)[C@H](Cc3ccc(O)cc31)[C@@H]2C` (relative stereo) [Example 7A, racemic cis 1,2,3,4,5,6-hexahydro-3-(3-methyl-2-butenyl)-6-ethyl-11-methyl-8-hydroxy-2,6-methano-3-benzazocine], the “dose approximately equivalent to 10 mg. of morphine sulfate as an analgesic” value [4] is reported as about 40 mg, the “analgesia in human subjects” value ([4]; 10 mg./70 kg. to 80 mg./70 kg.) is reported as “effective and satisfactory analgesia” and the solubility ([3]; dilute hydrochloric acid, mixture of 0.34 ml. of N/2 hydrochloric acid and 19.66 ml. of water, read-out: solubility in dilute hydrochloric acid) is reported as under 2.5 mg/mL. It also gave a solubility [3, 5] of under 10 mg/mL, an ED50 [2] of 11.6 mg/kg and an ED50 ([1]; sc) of 10.9 mg/kg.

`C=C(C)CN1CC[C@@]2(C)c3cc(O)ccc3C[C@@H]1[C@@H]2C` (relative stereo) [Example 8A, 1,2,3,4,5,6-Hexahydro-3-(2-methyl-2-propenyl)-6,11-dimethyl-8-hydroxy-2,6-methano-3-benzazocine] showed an ED50 [2] of 0.19 mg/kg and an ED50 ([1]; sc) of 0.094 mg/kg.

For `CCC12CCN(CC=C(C)C)C(Cc3ccc(O)cc31)C2C` (stereo not drawn) [7D (dextro cis), dextro cis 1,2,3,4,5,6-hexahydro-(3-methyl-2-butenyl)-6-ethyl-11-methyl-8-hydroxy-2,6-methano-3-benzazocine], the “dosage of antagonist which reduced the analgesic effect of meperidine by approximately 50 per cent” value [1] was 19.5 mg/kg.

In the case of `CCC12CCN(CC=C(C)C)C(Cc3ccc(O)cc31)C2C` (stereo not drawn) [7D (levo cis), levo cis 1,2,3,4,5,6-hexahydro-(3-methyl-2-butenyl)-6-ethyl-11-methyl-8-hydroxy-2,6-methano-3-benzazocine], the “dosage of antagonist which reduced the analgesic effect of meperidine by approximately 50 per cent” value [1] is reported as 3.1 mg/kg.

In the case of “racemic cis 1,2,3,4,5,6-hexahydro-3-(3-methyl-2-butenyl)-6-ethyl-11-methyl-8-cyclopropanecarbonyloxy-2,6-methano-3-benzazocine hydrochloride [Example 7C]”, the “dosage of antagonist which reduced the analgesic effect of meperidine by approximately 50 per cent” value [1] is reported as 0.0022 mg/kg.
